Experimental data published in paper PMC10938783, “A novel pan-PI3K inhibitor KTC1101 synergizes with anti-PD-1 therapy by targeting tumor suppression and immune activation” (Molecular Cancer, 2024).

Tested on: B16 cells gene expression
Assay: RNA-Seq (DEGs, GSEA, heatmaps) of B16 cells
Conditions: KTC1101 0.2μM, B16 cells, GSEA KEGG

## COc1cc(N)cc2c1nc(C(F)F)n2-c1nc(N2CCCOCC2)nc(N2CCOCC2)n1 [KTC1101, 2-(difluoromethyl)-4-methoxy-1-(4-morpholino-6-(1,4-oxazepan-4-yl)-1,3,5-triazin-2-yl)-1H-benzo[d]imidazol-6-amine]
  NES, mmu00600 Sphingolipid metabolism: -0.9518
  NES, mmu00860 Porphyrin metabolism: -1.036
  NES, mmu00980 Metabolism of xenobiotics by cytochrome P450: -1.182
  NES, mmu00982 Drug metabolism - cytochrome P450: -1.185
  NES, mmu01250 Biosynthesis of nucleotide sugars: -1.14
  NES, mmu01522 Endocrine resistance: 0.9546
  NES, mmu01523 Antifolate resistance: -0.7817
  NES, mmu02010 ABC transporters: -0.733
  NES, mmu03008 Ribosome biogenesis in eukaryotes: 0.4012
  NES, mmu03015 mRNA surveillance pathway: -0.5314
  NES, mmu03018 RNA degradation: -0.9036
  NES, mmu03022 Basal transcription factors: -0.6056
  NES, mmu03040 Spliceosome: -0.8341
  NES, mmu03060 Protein export: -1.073
  NES, mmu03082 ATP-dependent chromatin remodeling: 0.5087
  NES, mmu03083 Polycomb repressive complex: 0.285
  NES, mmu03250 Viral life cycle - HIV-1: -0.5849
  NES, mmu03410 Base excision repair: 0.509
  NES, mmu03420 Nucleotide excision repair: -0.5668
  NES, mmu03430 Mismatch repair: -0.5004
  NES, mmu03460 Fanconi anemia pathway: -1.065
  NES, mmu04014 Ras signaling pathway: -1.059
  NES, mmu04068 FoxO signaling pathway: 0.8311
  NES, mmu04070 Phosphatidylinositol signaling system: -0.719
  NES, mmu04071 Sphingolipid signaling pathway: -0.7752
  NES, mmu04115 p53 signaling pathway: 0.8074
  NES, mmu04120 Ubiquitin mediated proteolysis: -0.8155
  NES, mmu04130 SNARE interactions in vesicular transport: -0.572
  NES, mmu04136 Autophagy - other: 0.5764
  NES, mmu04137 Mitophagy - animal: -1.12
  NES, mmu04140 Autophagy - animal: -0.941
  NES, mmu04144 Endocytosis: 0.5953
  NES, mmu04146 Peroxisome: 0.8534
  NES, mmu04148 Efferocytosis: 0.8875
  NES, mmu04150 mTOR signaling pathway: -1.035
  NES, mmu04152 AMPK signaling pathway: -1.036
  NES, mmu04210 Apoptosis: 0.7025
  NES, mmu04211 Longevity regulating pathway: 0.8953
  NES, mmu04213 Longevity regulating pathway - multiple species: 0.9083
  NES, mmu04215 Apoptosis - multiple species: 0.9536
  NES, mmu04216 Ferroptosis: -1.019
  NES, mmu04217 Necroptosis: -1.0231
  NES, mmu04270 Vascular smooth muscle contraction: 0.9765
  NES, mmu04360 Axon guidance: 1.086
  NES, mmu04392 Hippo signaling pathway - multiple species: 1.0712
  NES, mmu04514 Cell adhesion molecules: 1.133
  NES, mmu04520 Adherens junction: 0.8769
  NES, mmu04530 Tight junction: -0.672
  NES, mmu04550 Signaling pathways regulating pluripotency of stem cells: 1.1205
  NES, mmu04611 Platelet activation: 0.9386
  NES, mmu04612 Antigen processing and presentation: 0.9078
  NES, mmu04622 RIG-I-like receptor signaling pathway: 0.797
  NES, mmu04623 Cytosolic DNA-sensing pathway: 1.118
  NES, mmu04650 Natural killer cell mediated cytotoxicity: 0.8466
  NES, mmu04658 Th1 and Th2 cell differentiation: 1.107
  NES, mmu04660 T cell receptor signaling pathway: 0.5971
  NES, mmu04662 B cell receptor signaling pathway: 0.8546
  NES, mmu04666 Fc gamma R-mediated phagocytosis: -1.143
  NES, mmu04670 Leukocyte transendothelial migration: 0.7018
  NES, mmu04714 Thermogenesis: -1.042
  NES, mmu04720 Long-term potentiation: 0.7614
  NES, mmu04723 Retrograde endocannabinoid signaling: 1.004
  NES, mmu04726 Serotonergic synapse: 1.185
  NES, mmu04727 GABAergic synapse: 1.114
  NES, mmu04728 Dopaminergic synapse: 0.9578
  NES, mmu04730 Long-term depression: 1.063
  NES, mmu04750 Inflammatory mediator regulation of TRP channels: 0.9151
  NES, mmu04910 Insulin signaling pathway: 1.052
  NES, mmu04912 GnRH signaling pathway: 1.125
  NES, mmu04915 Estrogen signaling pathway: 0.9405
  NES, mmu04916 Melanogenesis: 0.9564
  NES, mmu04917 Prolactin signaling pathway: 0.9333
  NES, mmu04920 Adipocytokine signaling pathway: 1.108
  NES, mmu04929 GnRH secretion: -1.07
  NES, mmu04930 Type II diabetes mellitus: 1.078
  NES, mmu04932 Non-alcoholic fatty liver disease: -1.05
  NES, mmu04934 Cushing syndrome: 0.9692
  NES, mmu04936 Alcoholic liver disease: 0.7413
  NES, mmu04960 Aldosterone-regulated sodium reabsorption: 1.176
  NES, mmu04961 Endocrine and other factor-regulated calcium reabsorption: 0.9748
  NES, mmu04962 Vasopressin-regulated water reabsorption: 1.132
